Reference: patent US11072617B2, “Bicyclic sulfones and sulfoxides and methods of use thereof” (Genentech, Inc., priority 2017, dated 2021)

Biological target: human RIP1 kinase domain (2-375) (Homo sapiens (Human), UniProt Q13546)
Assay: RIP1 kinase inhibition biochemical assay (Transcreener ADP, fluorescence polarization)
Settings: Ki app from tight-binding Morrison equation; 50 nM enzyme, 50 uM ATP, 2 hours incubation
Description: RIP1 Kinase Inhibition Assays (Biochemical Assay)
The compounds of the present invention were tested for their capacity to inhibit RIP1K activity as described below.
The ability of the receptor interacting protein kinase (RIPK1) to catalyze the hydrolysis of adenosine-5′-triphosphate (ATP) is monitored using the Transcreener ADP (adenosine-5′-diphosphate) assay (BellBrook Labs). Purified human RIP1 kinase domain (2-375) (50 nM) derived from a baculovirus-infected insect cell expression system is incubated with test compounds for 2 hours in 50 mM Hepes buffer (pH 7.5) containing 30 mM MgCl2, 1 mM dithiothreitol, 50 uM ATP, 0.002% Brij-35, and 0.5% dimethyl sulfoxide (DMSO). Reactions are quenched by the addition of 1× Bell Brooks Stop buffer B (20 mM Hepes (ph7.5), 40 mM ethylenediaminetetraacetic acid and 0.02% Brij-35) containing an additional 12 mM EDTA and 55 ug/mL ADP2 antibody and 4 nM ADP-AlexaFluor® 633 tracer. The tracer bound to the antibody is displaced by the ADP generated during the RIP1K reaction, which causes a decrease in fluorescence polarization that is measured by laser excitation at 633 nm with a FP microplate reader M1000. Fractional activity was plotted against test article concentration. Using Genedata Screener software (Genedata; Basel, Switzerland), the data were fit to the tight-binding apparent inhibition constant (Ki^app) Morrison equation [Williams, J. W. and Morrison, J. F. (1979) The kinetics of reversible tight-binding inhibition. Methods Enzymol 63: 437-67]. The following equation was used to calculate fractional activity and Ki^app:
[formula] where [E]T and [I]T are the total concentrations of active enzyme and test article, respectively.
Exemplary compounds of the present invention are provided in Table 1 along with their physiochemical characterization and in vitro RIP1 kinase inhibitory activity data. “Method” in the first column of each table refers to the synthetic method(s) used to prepare each compound as shown in the Examples above. In certain examples, chiral column retention times (min) are provided for certain stereoisomers. Unless otherwise specified, the stereochemistry shown in each structure represents relative configuration of a single stereoisomer, and absolute configuration (i.e., “R” and/or “S”) is arbitrarily assigned. In some embodiments, where the Method is described to include the separation of stereoisomers, a single stereoisomer of a compound of Table 1 is provided.

Chain of human RIP1 kinase domain (2-375) (Q13546 2-375): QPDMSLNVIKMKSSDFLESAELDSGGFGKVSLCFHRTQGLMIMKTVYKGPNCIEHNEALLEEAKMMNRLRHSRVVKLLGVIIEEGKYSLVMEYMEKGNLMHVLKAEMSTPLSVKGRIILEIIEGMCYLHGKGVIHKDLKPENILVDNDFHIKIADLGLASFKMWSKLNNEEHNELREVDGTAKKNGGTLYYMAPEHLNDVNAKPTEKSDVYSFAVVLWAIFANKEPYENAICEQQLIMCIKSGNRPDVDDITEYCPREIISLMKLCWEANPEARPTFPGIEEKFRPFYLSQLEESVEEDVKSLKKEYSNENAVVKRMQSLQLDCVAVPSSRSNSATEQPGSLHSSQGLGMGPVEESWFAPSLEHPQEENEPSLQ

SMILES	Ki
O=S(=O)(c1nc2n(n1)[C@H](c1cccc(F)c1F)C[C@@H]2F)[C@H]1CC1(F)F [Example 121, (5S,7S)-2-(2,2-difluorocyclopropyl)sulfonyl-5-(2,3-difluorophenyl)-7-fluoro-6,7-dihydro-5H-pyrrolo[1,2-b][1,2,4]triazole]	< 5 nM
O=S(=O)(c1ccccc1)c1nc2n(n1)[C@H](c1ccccc1)C[C@@H]2F (single isomer, unassigned) [Example 26]	3200 nM
N#Cc1ccccc1[C@@H]1C[C@H](F)c2nc(S(=O)(=O)C(F)F)nn21 (single isomer, unassigned) [Example 62]	266 nM
CC(F)S(=O)(=O)c1nc2n(n1)[C@H](c1ccccc1)C[C@@H]2F (stereo partly drawn) [Example 158, (5S,7S)-7-fluoro-2-(1-fluoroethylsulfonyl)-5-phenyl-6,7-dihydro-5H-pyrrolo[1,2-b][1,2,4]triazole]	13 nM
O=S(=O)(c1nc2n(n1)[C@H](c1cccc(Cl)c1F)C[C@@H]2F)C(F)F (single isomer, unassigned) [Example 65]	18 nM
[O-][S@+](CF)c1nc2n(n1)[C@H](c1cccc(F)c1)C[C@@H]2F (single isomer, unassigned) [Example 83]	130 nM
O=S(=O)(c1nc2n(n1)[C@H](c1ccccc1)C[C@@H]2F)[C@H]1C[C@@H](O)C1 (single isomer, unassigned) [Example 225]	300 nM
O=S(=O)(c1nc2n(n1)[C@H](c1c(F)cccc1F)C[C@@H]2F)C1CC1 (single isomer, unassigned) [Example 35]	5 nM
[O-][S@+](CF)c1nc2n(n1)[C@H](c1ccccc1Cl)C[C@@H]2F (single isomer, unassigned) [Example 87]	100 nM
O=S(=O)(c1nc2n(n1)[C@H](c1cc(F)ccc1F)C[C@@H]2F)C(F)(F)F (single isomer, unassigned) [Example 138]	< 5 nM
O=S(=O)(c1nc2n(n1)[C@H](c1cc(Cl)ccc1F)C[C@@H]2F)C1CC1F (stereo in doubt) [Example 207, (5S,7S)-5-(5-chloro-2-fluoro-phenyl)-7-fluoro-2-[(1S,2S)-2-fluorocyclopropyl]sulfonyl-6,7-dihydro-5H-pyrrolo[1,2-b][1,2,4]triazole]	37 nM
CCS(=O)(=O)c1nc2n(n1)[C@H](c1ccccc1)C[C@@H]2F (single isomer, unassigned) [Example 108]	11 nM
[O-][S+](c1nc2n(n1)[C@H](c1cc(F)cc(F)c1)CC2)C(F)F (stereo in doubt) [Example 173, (5S)-2-[(S)-difluoromethylsulfinyl]-5-(3,5-difluorophenyl)-6,7-dihydro-5H-pyrrolo[1,2-b][1,2,4]triazole]	19 nM
O=S(=O)(c1nc2n(n1)[C@H](c1ccccc1F)C[C@@H]2F)C1CC1F (stereo in doubt) [Example 205, (5S,7S)-7-fluoro-5-(2-fluorophenyl)-2-[(1S,2S)-2-fluorocyclopropyl]sulfonyl-6,7-dihydro-5H-pyrrolo[1,2-b][1,2,4]triazole]	20 nM
CCS(=O)(=O)c1nc2n(n1)[C@H](c1ccccc1F)CC2 (single isomer, unassigned) [Example 8]	290 nM
[O-][S@@+](CF)c1nc2n(n1)[C@H](c1cc(F)ccc1F)C[C@@H]2F (single isomer, unassigned) [Example 78]	< 5 nM
[O-][S@+](CF)c1nc2n(n1)[C@H](c1ccccc1)C[C@@H]2F [Example 71]	90 nM
O=S(=O)(c1nc2n(n1)[C@H](c1cccc(F)c1)C[C@@H]2F)[C@H]1C[C@H](F)C1 (single isomer, unassigned) [Example 226]	9.3 nM
[O-][S+](c1nc2n(n1)[C@H](c1ccccc1)C[C@@H]2F)C1CC1(F)F (stereo partly drawn) [Example 117, (5S,7S)-2-((2,2-difluorocyclopropyl)sulfinyl)-7-fluoro-5-phenyl-6,7-dihydro-5H-pyrrolo[1,2-b][1,2,4]triazole]	12 nM
[O-][S@+](CC1CC1)c1nc2n(n1)[C@H](c1ccccc1)C[C@@H]2F (single isomer, unassigned) [Example 184]	130 nM
O=S(=O)(c1nc2n(n1)[C@H](c1cc(F)ccc1F)C[C@@H]2F)[C@H]1CC1(F)F (single isomer, unassigned) [Example 126]	< 5 nM
[O-][S@@+](c1nc2n(n1)[C@H](c1ccccc1)CC2)C(F)F [Example 12, (5S)-2-[(S)-difluoromethylsulfinyl]-5-phenyl-6,7-dihydro-5H-pyrrolo[1,2-b][1,2,4]triazole]	48 nM

SMILES	Ki
N#CC[S@@+]([O-])c1nc2n(n1)[C@H](c1cccc(F)c1)C[C@@H]2F (single isomer, unassigned) [Example 98]	3 nM
O=S(=O)(c1nc2n(n1)[C@H](c1cc(F)ccc1F)C[C@@H]2F)C1CC1 (single isomer, unassigned) [Example 37]	6 nM
O=S(=O)(c1nc2n(n1)[C@H](c1ccccc1F)C[C@@H]2F)C1CC1F (stereo in doubt) [Example 206, (5S,7S)-7-fluoro-5-(2-fluorophenyl)-2-[(1R,2R)-2-fluorocyclopropyl]sulfonyl-6,7-dihydro-5H-pyrrolo[1,2-b][1,2,4]triazole]	10 nM
[O-][S@@+](c1nc2n(n1)[C@H](c1ccccc1)C[C@@H]2F)C(F)F [Example 21, (5S,7S)-2-[(S)-difluoromethylsulfinyl]-7-fluoro-5-phenyl-6,7-dihydro-5H-pyrrolo[1,2-b][1,2,4]triazole]	100 nM
CC(F)(F)S(=O)(=O)c1nc2n(n1)[C@H](c1ccccc1)C[C@@H]2F (single isomer, unassigned) [Example 149]	16 nM
O=S(=O)(CC1CC1)c1nc2n(n1)[C@H](c1ccccc1)C[C@@H]2F (single isomer, unassigned) [Example 112]	60 nM
O=S(=O)(c1nc2n(n1)[C@H](c1cccc(F)c1)C[C@@H]2F)C1CC1 (single isomer, unassigned) [Example 48]	< 5 nM
O=S(=O)(c1nc2n(n1)[C@H](c1cccc(F)c1)C[C@@H]2F)[C@@H]1C[C@H]1F (single isomer, unassigned) [Example 142]	< 5 nM
[O-][S@+](CF)c1nc2n(n1)[C@H](c1cccc(F)c1F)C[C@@H]2F (single isomer, unassigned) [Example 77]	280 nM
[O-][S@+](c1nc2n(n1)[C@H](c1ccccc1)C[C@@H]2F)C(F)(F)F (single isomer, unassigned) [Example 181]	4 nM
CC(C)[S@@+]([O-])c1nc2n(n1)[C@H](c1ccccc1)C[C@@H]2F (single isomer, unassigned) [Example 187]	8 nM
N#CC[S@@+]([O-])c1nc2n(n1)[C@H](c1ccccc1Cl)C[C@@H]2F (single isomer, unassigned) [Example 94]	4 nM
O=S(=O)(c1nc2n(n1)[C@@H](c1ccccc1)C[C@H]2F)C1CC1 (single isomer, unassigned) [Example 14]	980 nM
O=S(=O)(c1nc2n(n1)[C@H](c1ccccc1)C[C@@H]2F)C(F)(F)F (single isomer, unassigned) [Example 137]	4 nM
CS(=O)(=O)c1nc2n(n1)[C@H](c1ccccc1)C[C@@H]2F (single isomer, unassigned) [Example 106]	22 nM
O=S(=O)(c1nc2n(n1)[C@H](c1ccccc1Cl)C[C@@H]2F)C1CC1 (single isomer, unassigned) [Example 32]	3 nM
[O-][S@@+](c1nc2n(n1)[C@H](c1ccccc1)C[C@@H]2F)C(F)(F)F (single isomer, unassigned) [Example 180]	300 nM
COC[S+]([O-])c1nc2n(n1)[C@H](c1ccccc1)C[C@@H]2F (stereo partly drawn) [Example 115, (5S,7S)-7-fluoro-2-(methoxymethylsulfinyl)-5-phenyl-6,7-dihydro-5H-pyrrolo[1,2-b][1,2,4]triazole]	31 nM
[O-][S+](c1nc2n(n1)C(c1ccccc1)CC2)C(F)(F)F (centres unmarked) [Example 10, 5-phenyl-2-(trifluoromethylsulfinyl)-6,7-dihydro-5H-pyrrolo[1,2-b][1,2,4]triazole]	89 nM
O=S(=O)(c1nc2n(n1)[C@H](c1ccccc1)C[C@@H]2F)C(F)F (single isomer, unassigned) [Example 23]	5 nM
[O-][S+](CC1CC1)c1nc2n(n1)[C@H](c1ccccc1)C[C@@H]2F (stereo partly drawn) [Example 111, (5S,7S)-2-(cyclopropylmethylsulfinyl)-7-fluoro-5-phenyl-6,7-dihydro-5H-pyrrolo[1,2-b][1,2,4]triazole]	44 nM
O=S(=O)(c1nc2n(n1)[C@H](c1ccccc1)C[C@@H]2F)C1CC(F)(F)C1 (single isomer, unassigned) [Example 50]	17 nM
